Experiments:
[1] = tested on: Monocrotaline (MCT) lung injury model of Pulmonary Arterial Hypertension; assay: Survival in the Monocrotaline (MCT) lung injury model of Pulmonary Arterial Hypertension (Kaplan-Meier curves, 28 days); format: in vivo, rat; details: MCT rats; for survival (survival curve): compared to MCT group
Text: (§1) One of the most-used animal models is the Monocrotaline (MCT) lung injury model of Pulmonary Arterial Hypertension. Administration of MCT, that is metabolized in the liver to the reactive metabolite dehydromonocrotaline, results in a syndrome characterized by acute lung injury, interstitial pulmonary fibrosis, necrotizing pulmonary arteritis, pulmonary hypertension, right ventricular (RV) hypertrophy, myocarditis and hepatic venoocclusive disease.
(§2) The protocol to use is a standard one (Curr. Protoc. Pharmacol. 46:5.56.1-5.56.11(2009) John Wiley & Sons Inc). Rats, of 6-7 weeks old (150-200 g) are administered MCT 60 mg/kg subcutaneously, and the pathology usually develops in the course of initial 3 to 4 weeks with the animals dying within the next 2 weeks (5th-6th week). A decrease of 50% in food and water consumption is thought to be indicative of pathological status severe enough for testing.
Two studies were conducted separately and a combination analysis performed on the two studies. Each study consisted in the scheme represented in FIG. 1.
The experimental design of both studies was the same, with animals randomized in seven groups, five groups of 10 animals each (MCT, MCT+Bos300, MCT+Bos100, MCT+Compound B, MCT+Compound B+Bos100) and 2 groups of 6 animals each (SHAM and SHAM+Compound B).
The experimental details are described in more detail below; briefly, compounds were given to rats mixed with food starting, Compound B (30 mg/kg/day) for groups MCT+Compound B and SHAM+Compound B, bosentan (300 mg/kg/day) for group MCT+Bos300, bosentan (100 mg/kg/day) for group MCT+Bos100, Compound B+bosentan (30+100 mg/kg/day) for group MCT+Compound B+Bos100, and no compound for groups MCT and SHAM. Animals from groups MCT were administered MCT and animals from groups SHAM were administered vehicle. Twenty eight days later, surviving animals were sacrificed, tissues collected and weighed. During the entire experimental period food, water consumption and animal weight were monitored. The ratios organ weight to body weight (BW) were calculated to evaluate organ hypertrophy. The index of RV/LV+S was calculated as an index of RV hypertrophy. […]
Animals were given powdered food for an adaptation period of 3-5 days before treatment start. […] Food, water consumption and animal weight were monitored over the entire duration of the experiment.
Animals were given powdered food for an adaptation period of 3-5 days before treatment start. […] Animal weight, food and water consumption were evaluated twice a week and animals were regularly observed for any disease signs. Mortality was registered and on day 28 surviving animals were sacrificed, selected organs weighed and femurs removed and measured. […]

[2] = tested on: Monocrotaline (MCT) lung injury model of Pulmonary Arterial Hypertension; assay: Cardiac remodelling (organ weight ratios, Fulton index) in the MCT lung injury model of PAH; format: in vivo, rat; details: compared to MCT group; for right ventricular hypertrophy: 28 days
Text: as §1, §2
The experimental details are described in more detail below; briefly, compounds were given to rats mixed with food starting, Compound B (30 mg/kg/day) for groups MCT+Compound B and SHAM+Compound B, bosentan (300 mg/kg/day) for group MCT+Bos300, bosentan (100 mg/kg/day) for group MCT+Bos100, Compound B+bosentan (30+100 mg/kg/day) for group MCT+Compound B+Bos100, and no compound for groups MCT and SHAM. Animals from groups MCT were administered MCT and animals from groups SHAM were administered vehicle. Twenty eight days later, surviving animals were sacrificed, tissues collected and weighed. During the entire experimental period food, water consumption and animal weight were monitored. The ratios organ weight to body weight (BW) were calculated to evaluate organ hypertrophy. The index of RV/LV+S was calculated as an index of RV hypertrophy. In each study an n=10 animals was used for each MCT treatment group, and an n=6 was used for the groups not given MCT. The animals from MCT+Bos300 group from Study 1 were not considered for the combined survival analysis since these unexpectedly presented a higher mortality effect as compared to the MCT group. The surviving animals from this group were nevertheless considered for the cardiac remodelling analysis.
All data is expressed as mean±sem (Standard Error of the Mean) unless otherwise indicated. Differences between treatment groups were analysed by one-way ANOVA and post-hoc Newman-Keuls multiple comparison test. P<0.05 was considered statistically significant.
On day 28 surviving animals were sacrificed and the following tissues/organs collected and weighed: liver, kidney, lung, heart and spleen. Femurs were removed and measured. Heart was dissected into right ventricle, left ventricle+septum and these were also weighed. The ratio organ to body weight (BW) was calculated as well as the ratio organ weight to femur length. The index of RV/LV+S is an index of RV hypertrophy. Catecholamines were evaluated only on right ventricle and left ventricle+septum.
Whole spleen, whole liver, left kidney and lungs were removed, cleaned and weighed. Heart was removed, cleaned from atria and vascular tissue and weighed. Right ventricle was then dissected from the rest of the heart (left ventricle +septum) and both were weighed and put in tubes containing 0.2 M PCA. Femurs were removed, cleaned and length measured with a calliper.
The ratios organ weight to body weight and organ weight to femur length were calculated as well as the ratio right ventricular weight to left ventricular+septum weight.
Organs weighed were: liver, kidney, lung, heart and spleen. Heart was dissected into right ventricle, left ventricle+septum and these were also weighed. The ratio organ to body weight (BW) was calculated as well as the ratio organ weight to femur length. The index of RV/LV+S is an index of RV hypertrophy.
Whole spleen, whole liver, both kidneys and lungs were removed, cleaned and weighed. Heart was removed, cleaned from atria and vascular tissue and weighed. […]

[3] = Compound B alone 30 mg/kg/day, 28 days after MCT
[4] = Bosentan 300 mg/kg/day, 28 days after MCT

Row | SMILES | survival (survival curve) ([1]; Compound B 30 mg/kg/day in food) | survival rates compared to the use of bosentan alone ([1]; Compound B alone 30 mg/kg/day) | right ventricular hypertrophy ([2]; Compound B 30 mg/kg/day) | Fulton Index (RV/LV+S) [2, 3] | heart weight over bodyweight (BW) [2, 3] | right ventricle (RV) weight over bodyweight (BW) [2, 3] | survival (survival curve) ([1]; bosentan 100 mg/kg/day in food) | survival (survival curve) ([1]; bosentan 300 mg/kg/day in food) | Fulton Index (RV/LV+S) [2, 4] | right ventricle (RV) weight over bodyweight (BW) [2, 4] | right ventricular hypertrophy ([2]; bosentan 100 mg/kg/day (MCT+Bos100)) | right ventricular hypertrophy ([2]; bosentan 300 mg/kg/day (MCT+Bos300))
1 | Fc1cc(F)c2c(c1)C[C@@H](n1c(CCNCc3ccccc3)c[nH]c1=S)CO2 [Compound B, (R)-5-(2-(benzylamino)ethyl)-1-(6,8-difluorochroman-3-yl)-1H-imidazole-2(3H)-thione] | slight increase in survival | greater survival rates | significant decreased | significantly decreased | significantly decreased | significantly decreased | – | – | – | – | – | –
2 | COc1ccccc1Oc1c(NS(=O)(=O)c2ccc(C(C)(C)C)cc2)nc(-c2ncccn2)nc1OCCO [bosentan, Bosentan] | – | – | – | – | – | – | No clear benefit | No clear benefit | significantly decreased | significantly decreased | significant decreased | marked and statistically significant decrease

Reference: patent US10308640B2, “1,3-dihydroimidazole-2-thione derivatives for use in the treatment of pulmonary arterial hypertension and lung injury” (BIAL—PORTELA & CA S.A., priority 2012, dated 2019)
